# Assay results as given in patent publication EP0264914A2, “Process for producing L-phenylalanine” (KYOWA HAKKO KOGYO CO., LTD., priority 1986, dated 1988).
# Like-named read-outs stand apart in the source and are kept apart here.
# Assays:
# DS = DS (Escherichia coli, UniProt P0AB91); test: DS activity with phenylalanine added to the reaction solution; assay type: biochemical; settings: 100 mM phenylalanine
# Method: (§1) DS, CM and PD activities of Corynebacterium glutamicum ATCC 39019 and transformants containing pEaroG-pheA3 were determined. Determination of DS activity was done according to the method of P.R. Sprinavasan, D.B. Sprinson, et al. [J. Biol. Chem., 234, 716 (1959)] and determination of CM and PD activities was done according to the method of R.G.H. Cotton and F. Gibson [Biochem. Biophys. Acta, 100, 76 (1965)].
# (§2) Furthermore, DS, CM and PD activities of the transformants carrying pEaroG-pheA1, pEaroG-pheA2 or pEaroG-pheA3, were determined when 100 mM phenylalanine was added to the reaction solutions. Their activities shown in Table 2 are expressed as percentages of those without addition of phenylalanine.
# CM = CM (Escherichia coli, UniProt P0A9J8); test: CM activity with phenylalanine added to the reaction solution; assay type: biochemical; settings: 100 mM phenylalanine; for activity at 100000 µM: read-out: CM activity, expressed as percentage of that without addition of phenylalanine
# CM, sequence (P0A9J8 whole entry): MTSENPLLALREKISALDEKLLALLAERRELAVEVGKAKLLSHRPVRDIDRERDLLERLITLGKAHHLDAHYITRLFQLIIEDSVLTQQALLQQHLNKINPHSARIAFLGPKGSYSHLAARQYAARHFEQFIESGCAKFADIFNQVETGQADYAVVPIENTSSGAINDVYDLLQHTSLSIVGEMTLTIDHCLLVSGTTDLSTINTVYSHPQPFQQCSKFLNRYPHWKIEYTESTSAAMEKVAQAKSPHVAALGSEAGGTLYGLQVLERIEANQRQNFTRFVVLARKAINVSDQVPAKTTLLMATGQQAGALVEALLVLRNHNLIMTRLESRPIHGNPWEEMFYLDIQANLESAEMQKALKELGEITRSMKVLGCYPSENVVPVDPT
# Method: as §1, §2
# PD = PD (Escherichia coli, UniProt P0A9J8); test: PD activity with phenylalanine added to the reaction solution; assay type: biochemical; settings: 100 mM phenylalanine; for activity at 100000 µM: read-out: PD activity, expressed as percentage of that without addition of phenylalanine
# PD, sequence (P0A9J8 whole entry): as above
# Method: as §1, §2
# [1] = test system: Escherichia coli AB3248 strain carrying pAROG1; test: Growth on M9 plate medium containing phenylalanine; assay type: cell-based; settings: M9 plate medium containing 500 µg/mℓ phenylalanine
# Method: Then, 50 µℓ of the ligase reaction mixture was added to 0.2 mℓ of a suspension containing competent cells at a concentration of about 10⁹ cells/mℓ and the mixture was left standing on ice for 10 minutes. Then, the mixture was heated at 37°C for 5 minutes and admixed with 2 mℓ of LB medium. Then, the mixture was left standing at 37°C for 90-120 minutes. Then, the cells were centrifugally washed twice with physiological saline solution and spread onto M9 plate medium (medium comprising 2 g of glucose, 1 g of NH₄Cl, 6 g of Na₂HPO₄, 3 g of KH₂PO₄, 0.1 g of MgSO₄·7H₂O, 15 mg of CaCl₂·2H₂O, 4 mg of thiamine hydrochloride and 15 g of agar in 1 ℓ of water, adjusted to pH 7.2), containing […] each of histidine, proline, arginine, isoleucine and valine. Colonies grown on M9 plate medium were spread onto LB plate medium (LB medium containing 1.6% agar, pH 7.0) containing 100 µg/mℓ ampicillin and LB plate medium containing 20 µg/mℓ tetracycline, and transformants grown on the ampicillin-containing medium and failing to grow on the tetracycline-containing medium were selected.
# Furthermore, the HindIII-SalI-cleaved DNA fragment had the same restriction enzyme cleavage sites as those of aroG gene, as reported by W.D. Davies, et al. [Nucl. Acids Res., 10, 4045 (1982)] […]
# [2] = Corynebacterium glutamicum ATCC 39019/pEaroG-pheA2
# [3] = Corynebacterium glutamicum ATCC 39019/pEaroG-pheA3
# [4] = Corynebacterium glutamicum ATCC 39019/pEaroG-pheA1
# DS, sequence (P0AB91 whole entry): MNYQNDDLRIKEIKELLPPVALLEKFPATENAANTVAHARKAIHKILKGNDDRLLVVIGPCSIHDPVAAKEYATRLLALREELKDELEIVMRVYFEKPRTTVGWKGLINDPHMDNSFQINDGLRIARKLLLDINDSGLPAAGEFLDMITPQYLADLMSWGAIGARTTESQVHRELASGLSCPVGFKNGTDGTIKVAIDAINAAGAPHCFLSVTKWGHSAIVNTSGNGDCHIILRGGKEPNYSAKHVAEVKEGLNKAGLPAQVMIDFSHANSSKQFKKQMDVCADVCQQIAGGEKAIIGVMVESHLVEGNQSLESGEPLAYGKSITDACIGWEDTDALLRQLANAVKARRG
smiles,measurement,setting,value
N[C@@H](Cc1ccccc1)C(=O)O [phenylalanine],activity at 100000 µM,"DS; Corynebacterium glutamicum ATCC 39019/pEaroG-pheA1, read-out: DS activity, expressed as percentage of that without addition of phenylalanine",12%
same,"DS activity, expressed as percentage of that without addition of phenylalanine",DS; [2],74 percentages
same,"DS activity, expressed as percentage of that without addition of phenylalanine",DS; [3],74 percentages
same,activity at 100000 µM,CM; [4],61%
same,activity at 100000 µM,CM; [2],66%
same,"CM activity, expressed as percentage of that without addition of phenylalanine",CM; [3],89 percentages
same,activity at 100000 µM,PD; [4],5%
same,activity at 100000 µM,PD; [2],7%
same,"PD activity, expressed as percentage of that without addition of phenylalanine",PD; [3],81 percentages
same,growth of Escherichia coli AB3248 strain carrying pAROG1,[1],completely inhibited
